According to patent US12226424B2, “Target protein degradation compounds, their anti-tumor use, their intermediates and use of intermediates” (ShanghaiTech University, priority 2018, dated 2025):

System: CDK4/6 protein
Assay: Western-blot determination of CDK4/6 protein degradation (DC50) in T-47D cells
Assay type: cell-based, human
Details: 24 h drug treatment, read-out: DC50(nM)/T-47D cell line

`Cc1nc2c(F)cc(-c3nc(Nc4ccc(CN5CCN(CCCCCCSc6cccc7c6CN(C6CCC(=O)NC6=O)C7=O)CC5)cn4)ncc3F)cc2n1C(C)C` (centres unmarked) [SIAIS262173, 3-(4-((6-(4-((6-((5-fluoro-4-(4-fluoro-1-isopropyl-2-methyl-1H-benzo[d]imidazol-6-yl)pyrimidin-2-yl)amino)pyridin-3-yl)methyl)piperazin-1-yl)hexyl)thio)-1-oxoisoindolin-2-yl)piperidine-2,6-dione] and `Cc1nc2c(F)cc(-c3nc(Nc4ccc(CN5CCN(C(=O)COCCSc6cccc7c6CN(C6CCC(=O)NC6=O)C7=O)CC5)cn4)ncc3F)cc2n1C(C)C` (centres unmarked) [SIAIS262171, 3-(4-((2-(2-(4-((6-((5-fluoro-4-(4-fluoro-1-isopropyl-2-methyl-1H-benzo[d]imidazol-6-yl)pyrimidin-2-yl)amino)pyridin-3-yl)methyl)piperazin-1-yl)-2-oxoethoxy)ethyl)thio)-1-oxoisoindolin-2-yl)piperidine-2,6-dione] cannot be ordered by DC50: 0.05 to 0.5 nM for the first, 0.5 nM for the second.

First: CN(C)C(=O)c1cc2cnc(Nc3ccc(N4CCN(C(=O)COCCOCCSc5cccc6c5CN(C5CCC(=O)NC5=O)C6=O)CC4)cn3)nc2n1C1CCCC1 (centres unmarked) [SIAIS219107, 7-cyclopentyl-2-((5-(4-(2-(2-(2-((2-(2,6-dioxopiperidin-3-yl)-1-oxoisoindolin-4-yl)thio)ethoxy)ethoxy)acetyl)piperazin-1-yl)pyridin-2-yl)amino)-N,N-dimethyl-7H-pyrrolo[2,3-d]pyrimidine-6-carboxamide]
Second: CN(C)C(=O)c1cc2cnc(Nc3ccc(N4CCN(C(=O)CCCSc5cccc6c5C(=O)N(C5CCC(=O)NC5=O)C6=O)CC4)cn3)nc2n1C1CCCC1 (centres unmarked) [SIAIS219102, 7-cyclopentyl-2-((5-(4-(4-((2-(2,6-dioxopiperidin-3-yl)-1,3-dioxoisoindolin-4-yl)thio)butanoyl)piperazin-1-yl)pyridin-2-yl)amino)-N,N-dimethyl-7H-pyrrolo[2,3-d]pyrimidine-6-carboxamide]
The DC50 of the first is lower: 0.04 to 0.2 nM for the first, 1 to 10 nM for the second.

First: CC(=O)c1c(C)c2cnc(Nc3ccc(N4CCN(C(=O)CCSc5cccc6c5C(=O)N(C5CCC(=O)NC5=O)C6=O)CC4)cn3)nc2n(C2CCCC2)c1=O (centres unmarked) [SIAIS184086, 4-((3-(4-(6-((6-acetyl-8-cyclopentyl-5-methyl-7-oxo-7,8-dihydropyrido[2,3-d]pyrimidin-2-yl)amino)pyridin-3-yl)piperazin-1-yl)-3-oxopropyl)thio)-2-(2,6-dioxopiperidin-3-yl)isoindoline-1,3-dione]
Second: CC(=O)c1c(C)c2cnc(Nc3ccc(N4CCN(C(=O)C[S+]([O-])c5cccc6c5C(=O)N(C5CCC(=O)NC5=O)C6=O)CC4)cn3)nc2n(C2CCCC2)c1=O (centres unmarked) [SIAIS151057, 4-((2-(4-(6-((6-acetyl-8-cyclopentyl-5-methyl-7-oxo-7,8-dihydropyrido[2,3-d]pyrimidin-2-yl)amino)pyridin-3-yl)piperazin-1-yl)-2-oxoethyl)sulfinyl)-2-(2,6-dioxopiperidin-3-yl)isoindoline-1,3-dione]
The DC50 of the first is higher: over 500 nM for the first, 100 to 500 nM for the second.

Same assay, conditions: read-out: DC50(nM)/T-47D cell line, 24 h drug treatment

`CN(C)C(=O)c1cc2cnc(Nc3ccc(N4CCN(C(=O)CCCCCCSc5cccc6c5C(=O)N(C5CCC(=O)NC5=O)C6=O)CC4)cn3)nc2n1C1CCCC1` (centres unmarked) [SIAIS219105, 7-cyclopentyl-2-((5-(4-(7-((2-(2,6-dioxopiperidin-3-yl)-1,3-dioxoisoindolin-4-yl)thio)heptanoyl)piperazin-1-yl)pyridin-2-yl)amino)-N,N-dimethyl-7H-pyrrolo[2,3-d]pyrimidine-6-carboxamide] and `CN(C)C(=O)c1cc2cnc(Nc3ccc(N4CCN(C(=O)COCCSc5cccc6c5CN(C5CCC(=O)NC5=O)C6=O)CC4)cn3)nc2n1C1CCCC1` (centres unmarked) [SIAIS219106, 7-cyclopentyl-2-((5-(4-(2-(2-((2-(2,6-dioxopiperidin-3-yl)-1-oxoisoindolin-4-yl)thio)ethoxy)acetyl)piperazin-1-yl)pyridin-2-yl)amino)-N,N-dimethyl-7H-pyrrolo[2,3-d]pyrimidine-6-carboxamide] fall in the same range of DC50: 0.04 to 0.2 nM for the first, 0.04 to 0.2 nM for the second.
